In ChEMBL document CHEMBL1127141, “Monocyclic -lactam inhibitors of human leukocyte elastase. Stereospecific synthesis and activity of 3,4-disubstituted-2-azetidinones” (Bioorg Med Chem Lett, 1993):

How the values were obtained:
Neutrophil elastase = target: T1, Neutrophil elastase (Homo sapiens, UniProt P08246); assay: Compound was evaluated for the inhibitory activity against Human leukocyte elastase; […]
T1 sequence (P08246 whole entry): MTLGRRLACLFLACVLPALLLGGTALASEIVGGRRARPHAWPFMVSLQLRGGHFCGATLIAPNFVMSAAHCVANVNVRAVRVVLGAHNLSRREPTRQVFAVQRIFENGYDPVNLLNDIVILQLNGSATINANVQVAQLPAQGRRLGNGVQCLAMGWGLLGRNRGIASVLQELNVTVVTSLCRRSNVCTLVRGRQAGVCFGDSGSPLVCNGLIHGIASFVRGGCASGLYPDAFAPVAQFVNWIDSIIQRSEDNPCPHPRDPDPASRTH

[1] = target: T2, Neutrophil elastase (Homo sapiens) (UniProt P08246); assay: Compound was evaluated for the inhibitory activity against Human leukocyte elastase
T2 sequence (whole entry): T1 sequence (P08246 whole entry)

Structure (SMILES) | Ki (Neutrophil elastase) [µM] | K obs / 1 [1] [M⁻¹ s⁻¹]
CC[C@H]1C(=O)N(C(=O)NCc2ccccc2)[C@H]1Oc1ccc(C(=O)O)cc1 | 5.6 | 
CC[C@@H]1C(=O)N(C(=O)NCc2ccccc2)[C@H]1Oc1ccc(C(=O)O)cc1 |  | 424
CC[C@@H]1C(=O)N(C(=O)NCc2ccccc2)[C@@H]1Oc1ccc(C(=O)O)cc1 |  | 383
CCC1C(=O)N(C(=O)NCc2ccccc2)C1Oc1ccc(C(=O)O)cc1 (trans isomer) |  | 2480
